Measurements from patent US9598370B2, “Prolyl hydroxylase inhibitors and methods of use” (Akebia Therapeutics, Inc., priority 2006, dated 2017).

How the values were obtained:
HIF-1α = assay: Mouse tissue HIF Western blot analysis; format: in vivo
Experimental: (§1) Mouse Ischemic Hindlimb Study
(§2) All animal work is conducted in accordance with the Guide for the Care and Use of Laboratory Animals (National Academy of Sciences; Copyright© 1996) and the Institutional Animal Care and Use Committee guidelines at Procter and Gamble Pharmaceuticals. We studied 9-10 week old male C57Bl/6 mice from Charles River Laboratory (Portage, Mich.). The mice are orally dosed with vehicle (aqueous carbonate buffer, 50 mM; pH 9.0) or compound 1 in vehicle at 50 mg/kg or 100 mg/kg. The animals are dosed three times: day 1 at 8 am and 5 pm, day 2 at 8 am. One hour after the first dose, unilateral arterial ligation is performed under anesthesia using isoflurane. The femoral artery is ligated proximal to the origin of the popliteal artery. The contralateral limb underwent a sham surgical procedure. Ligation is performed in an alternating fashion between right and left hindlimbs. Two hours after 8 am dosing on day 2, we obtained blood by ventricular stick while the mice are anesthetized with isoflurane. Serum samples for EPO analysis are obtained using gel clot serum separation tubes. Heart, liver, and gastrocnemius muscles are harvested, snap-frozen in liquid nitrogen, and stored in −80° C. until use.
Mouse Tissue HIF Western Blot Analysis
Tissues from mice stored at −80° C. are powdered with mortar and pestle chilled with liquid nitrogen. […]

EPO = assay: Mouse serum EPO assay (mouse ischemic hindlimb study); format: in vivo
Experimental: as §1, §2
The mouse serum EPO is detected using Mouse Quantikine Erythropoietin ELISA kit from R&D Systems according to manufacturer's instructions.

[1] = target: Full-length recombinant human EGLN-3 (His-MBP-TVMVEGLN-3 fusion) (Homo sapiens (Human), UniProt Q9H6Z9); assay: EGLN-3 enzyme activity assay (MALDI-TOF MS); format: biochemical; conditions: recombinant human EGLN-3 fusion; HIF-1α peptide 556-574 substrate; read-out: EGLIN3 IC50
Experimental: Hydroxylated peptide product is identified from substrate by the gain of 16 Da. Data defined as percent conversion of substrate to product is analyzed in GraphPad Prism 4 to calculate IC50 values.

Sequence of Full-length recombinant human EGLN-3 (His-MBP-TVMVEGLN-3 fusion) (Q9H6Z9 whole entry, the tested form may be a part): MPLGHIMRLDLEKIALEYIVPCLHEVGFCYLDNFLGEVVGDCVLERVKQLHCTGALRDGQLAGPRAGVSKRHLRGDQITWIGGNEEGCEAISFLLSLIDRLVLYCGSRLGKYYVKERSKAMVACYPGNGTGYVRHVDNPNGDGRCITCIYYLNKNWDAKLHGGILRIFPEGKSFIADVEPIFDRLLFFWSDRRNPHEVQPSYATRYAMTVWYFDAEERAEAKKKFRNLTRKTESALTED

Row | SMILES | stabilization of HIF-1α in mouse liver (immunoblot of nuclear extracts, FIG. 1) (HIF-1α) | erythropoietin level versus vehicle in mouse serum (FIG. 2) (EPO; mouse serum after oral dosing) | IC50 [1] | EPO response (EPO; in vivo response, mouse serum EPO)
1 | O=C(O)CNC(=O)c1ncc(-c2cccc(Cl)c2)cc1O [{[5-(3-Chlorophenyl)-3-hydroxypyridine-2-carbonyl]amino}-acetic acid] | stabilization of HIF-1α | elevated |  | 
2 | O=C(O)CNC(=O)c1ncc(-c2ccc(Cl)cc2)cc1O [{[5-(4-Chlorophenyl)-3-hydroxypyridine-2-carbonyl]amino}-acetic acid] |  |  | 83 nM | yes
